What was measured:
Mu-type opioid receptor [1] = target: T1, Mu-type opioid receptor (Homo sapiens, UniProt P35372); assay: Agonist activity at human MOR assessed as inhibition of forskolin-stimulated cAMP accumulation after 30 mins by cell based TR-FRET assay; format: functional
Mu-type opioid receptor [2] = target: Mu-type opioid receptor (Mus musculus, UniProt P42866); assay: Agonist activity at mouse MOR assessed as inhibition of forskolin-stimulated cAMP accumulation after 30 mins by cell based TR-FRET assay; format: functional
[3] = target: Mu-type opioid receptor (Mus musculus) (UniProt P42866); assay: Activation of mouse MOR assessed as inhibition of forskolin-stimulated cAMP accumulation after 30 mins by cell based TR-FRET assay relative to DAMGO; format: functional
Homo sapiens [4] = species on record: Homo sapiens; assay: Selectivity ratio of EC50 for human KOR to EC50 for human MOR
[5] = target: Kappa-type opioid receptor (Homo sapiens, UniProt P41145); format: functional, cell-based
Description: Agonist activity at human KOR assessed as inhibition of forskolin-stimulated cAMP accumulation after 30 mins by cell based TR-FRET assay

[6] = target: T2, Delta-type opioid receptor (Homo sapiens, UniProt P41143); assay: Agonist activity at human DOR assessed as inhibition of forskolin-stimulated cAMP accumulation after 30 mins by cell based TR-FRET assay; format: functional
[7] = target: T2, Delta-type opioid receptor; assay: Activation of human DOR assessed as inhibition of forskolin-stimulated cAMP accumulation after 30 mins by cell based TR-FRET assay relative to DPDPE; format: functional
Homo sapiens [8] = species on record: Homo sapiens; assay: Selectivity ratio of EC50 for human KOR to EC50 for human DOR
[9] = target: Kappa-type opioid receptor (Mus musculus, UniProt P33534); assay: Agonist activity at mouse KOR assessed as inhibition of forskolin-stimulated cAMP accumulation after 30 mins by cell based TR-FRET assay; format: functional
Mu-type opioid receptor [10] = target: T1, Mu-type opioid receptor; assay: Ratio of morphine EC50 to compound EC50 for human MOR

Sequence of Mu-type opioid receptor (Mus musculus) (P42866 whole entry): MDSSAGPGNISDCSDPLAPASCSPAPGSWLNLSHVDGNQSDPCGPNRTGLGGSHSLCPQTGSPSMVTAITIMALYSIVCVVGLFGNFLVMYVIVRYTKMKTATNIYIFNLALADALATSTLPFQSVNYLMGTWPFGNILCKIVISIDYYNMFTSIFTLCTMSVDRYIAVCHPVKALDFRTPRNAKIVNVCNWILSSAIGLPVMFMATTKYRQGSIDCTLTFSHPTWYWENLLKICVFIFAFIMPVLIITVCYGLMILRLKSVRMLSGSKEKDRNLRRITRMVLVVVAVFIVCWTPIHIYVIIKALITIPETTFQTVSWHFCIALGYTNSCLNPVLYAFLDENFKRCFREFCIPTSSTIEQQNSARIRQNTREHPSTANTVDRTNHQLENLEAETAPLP
Sequence of Mu-type opioid receptor (Mus musculus, UniProt P42866) (P42866 whole entry): as above
T1 sequence (P35372 whole entry): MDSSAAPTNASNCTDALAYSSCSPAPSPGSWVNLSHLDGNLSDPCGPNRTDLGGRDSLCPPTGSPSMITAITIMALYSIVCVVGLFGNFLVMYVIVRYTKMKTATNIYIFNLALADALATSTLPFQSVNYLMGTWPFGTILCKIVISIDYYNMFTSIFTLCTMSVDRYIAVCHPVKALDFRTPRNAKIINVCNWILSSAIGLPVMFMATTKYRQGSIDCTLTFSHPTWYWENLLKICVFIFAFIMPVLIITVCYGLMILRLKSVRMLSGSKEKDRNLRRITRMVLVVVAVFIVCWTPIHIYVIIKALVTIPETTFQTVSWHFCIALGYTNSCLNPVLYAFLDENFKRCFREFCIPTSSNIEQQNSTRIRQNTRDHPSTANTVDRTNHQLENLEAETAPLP
Sequence of Kappa-type opioid receptor (Mus musculus, UniProt P33534) (P33534 whole entry): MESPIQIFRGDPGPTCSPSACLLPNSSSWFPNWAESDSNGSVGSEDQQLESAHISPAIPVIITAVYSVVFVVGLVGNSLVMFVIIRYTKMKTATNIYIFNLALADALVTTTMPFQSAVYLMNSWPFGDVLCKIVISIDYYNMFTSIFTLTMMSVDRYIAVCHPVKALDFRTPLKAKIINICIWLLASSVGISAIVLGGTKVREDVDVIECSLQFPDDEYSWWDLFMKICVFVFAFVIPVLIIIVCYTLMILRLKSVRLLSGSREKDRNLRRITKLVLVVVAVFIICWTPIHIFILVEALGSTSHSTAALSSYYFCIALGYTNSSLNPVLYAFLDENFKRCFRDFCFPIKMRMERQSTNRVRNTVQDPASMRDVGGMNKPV
Sequence of Kappa-type opioid receptor (Homo sapiens, UniProt P41145) (P41145 whole entry): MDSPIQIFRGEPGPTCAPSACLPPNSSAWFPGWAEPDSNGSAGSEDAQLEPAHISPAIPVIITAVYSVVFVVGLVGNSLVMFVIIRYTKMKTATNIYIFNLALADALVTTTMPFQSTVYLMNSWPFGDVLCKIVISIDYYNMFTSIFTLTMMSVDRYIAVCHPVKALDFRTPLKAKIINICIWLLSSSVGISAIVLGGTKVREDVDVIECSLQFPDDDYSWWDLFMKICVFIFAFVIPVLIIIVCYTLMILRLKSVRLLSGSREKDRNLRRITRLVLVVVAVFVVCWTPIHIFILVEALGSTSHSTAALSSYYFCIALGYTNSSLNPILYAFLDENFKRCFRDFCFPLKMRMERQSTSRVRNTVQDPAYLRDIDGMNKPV
T2 sequence (P41143 whole entry): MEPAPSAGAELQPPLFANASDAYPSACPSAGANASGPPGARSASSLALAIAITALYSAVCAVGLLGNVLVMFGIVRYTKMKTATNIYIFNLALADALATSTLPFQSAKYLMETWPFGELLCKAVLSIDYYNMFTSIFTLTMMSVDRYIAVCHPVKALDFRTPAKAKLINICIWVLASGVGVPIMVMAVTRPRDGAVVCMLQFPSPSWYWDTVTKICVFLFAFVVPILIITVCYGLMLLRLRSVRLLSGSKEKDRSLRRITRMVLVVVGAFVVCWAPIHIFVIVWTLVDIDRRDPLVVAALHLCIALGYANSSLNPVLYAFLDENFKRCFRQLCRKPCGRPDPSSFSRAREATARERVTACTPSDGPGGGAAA

Row | Structure (SMILES) | EC50 (Mu-type opioid receptor [1]) [µM] | EC50 (Mu-type opioid receptor [2]) [µM] | inhibition [3] [%] | Ratio EC50 (Homo sapiens [4]) | EC50 [5] [µM] | EC50 [6] [µM] | inhibition [7] [%] | Ratio EC50 (Homo sapiens [8]) | EC50 [9] [µM] | Ratio EC50 (Mu-type opioid receptor [10])
1 | COc1ccc2c3c1O[C@H]1[C@@H](O)[C@H](OC)C[C@H]4[C@@H](C2)N(C)CC[C@@]341 | 16 | 4 | 86 | 3 | 50 | 13 | 84 | 4 |  | 
2 | CN1CC[C@]23c4c5ccc(O)c4O[C@H]2[C@@H](O)C=C[C@H]3[C@H]1C5 |  |  | 97 |  |  |  | 69 |  |  | 
3 | COc1ccc2c3c1O[C@H]1[C@@H](O)[C@H](O)C[C@H]4[C@@H](C2)N(C)CC[C@@]341 | 16 | 6.3 | 96 | 8 | 126 | 100 | 117 | 1 | 159 | 
4 | COc1ccc2c3c1O[C@H]1[C@@H](O)[C@H](F)C[C@H]4[C@@H](C2)N(C)CC[C@@]341 | 40 | 8 | 79 | 2 |  | 79 | 90 | 1 |  | 
5 | COc1ccc2c3c1O[C@H]1[C@@H](OC)[C@H](C)C[C@H]4[C@@H](C2)N(C)CC[C@@]341 | 3.2 | 0.8 | 92 | 10 | 32 | 2.5 | 94 | 13 | 50 | 
6 | COc1cc(C)c2c3c1O[C@H]1[C@H](F)[C@H](C)C[C@H]4[C@@H](C2)N(C)CC[C@@]341 | 3.2 | 0.8 | 78 | 1 | 5 | 3.2 | 86 | 1 | 10 | 
7 | C[C@@H](NC(=O)[C@@H](N)Cc1ccc(O)cc1)C(=O)NCC(=O)N(C)[C@@H](Cc1ccccc1)C(=O)NCCO [DAMGO] |  |  |  |  |  |  | 99 |  |  | 
8 | COc1cc(C)c2c3c1O[C@H]1[C@@H](O)[C@H](C)C[C@H]4[C@@H](C2)N(C)CC[C@@]341 | 5 | 2 | 77 | 3 |  | 16 | 73 | 1 | 50 | 
9 | COc1ccc2c3c1O[C@H]1C(=O)CC[C@@]4(O)[C@@H](C2)N(C)CC[C@]314 [OXYCODONE] |  | 0.16 | 97 |  |  |  | 93 |  | 16 | 
10 | COc1ccc2c3c1O[C@H]1[C@@H](O)[C@H](C)C[C@H]4[C@@H](C2)N(C)CC[C@@]341 | 2 | 0.6 | 97 | 13 | 25 | 3.2 | 97 | 8 | 32 | 
11 | C[C@@H]1C[C@H]2[C@H]3Cc4ccc(O)c5c4[C@@]2(CCN3C)[C@@H](O5)[C@H]1O | 0.02 | 0.01 | 99 | 80 | 1.6 | 0.08 | 107 | 20 | 1.6 | 2
